The target of the assay is T1, Des1 (h) (Homo sapiens, UniProt O15121).
T1 construct: endogenous in cells; host or cells: parental Jurkat cells
T1 sequence (O15121 1-323): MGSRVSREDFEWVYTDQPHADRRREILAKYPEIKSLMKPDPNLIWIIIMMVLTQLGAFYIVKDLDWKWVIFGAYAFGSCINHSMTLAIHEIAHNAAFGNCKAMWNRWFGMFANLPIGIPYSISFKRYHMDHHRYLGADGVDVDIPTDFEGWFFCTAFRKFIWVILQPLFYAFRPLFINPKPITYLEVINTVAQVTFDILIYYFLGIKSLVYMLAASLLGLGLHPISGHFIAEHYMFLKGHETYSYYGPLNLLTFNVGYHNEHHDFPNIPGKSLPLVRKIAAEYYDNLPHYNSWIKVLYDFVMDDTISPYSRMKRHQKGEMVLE
Description: Measurement of Dihydroceramide Desaturase-1 (Des-1) activity in intact Jurkat cells labeled with DhCer-C6-NBD (HPLC). The class given is cell-based. The settings on record: for IC50: intact Jurkat cells, given as concentration range, or <X / >X if measured at one concentration X only, read-out: Des1 (h) Jurkat IC50. The method, then:
Measurement of Dihydroceramide Desaturase-1 (Des-1) Activity
Compounds were assessed for Des-1 inhibitory activity. Measurement of Des1 activity was performed by HPLC using intact Jurkat cells labeled with DhCer-C6-NBD as described previously (Munoz-Olaya, J. M. et al. ChemMedChem 2008, 3, 946-953) with modifications to enhance sensitivity and reproducibility. These modifications included the use of parental Jurkat cells, 0.5% serum in the culture media, and cell harvesting via centrifugation at 500×g to maximise ceramide extraction. Extracted samples (50 ul) were analysed on a Waters HPLC coupled to a fluorescence detector using a 30 cm C18 reverse-phase column eluted with 1 ml/min 20% H2O and 80% acetonitrile, both with a 0.1% of trifluoroacetic acid. NBD-labelled substrate and product were quantitated with an excitation and emission wavelengths of 465 nm and 530 nm, respectively.

The values that follow come from patent US12448371B2, “Inhibitor compounds” (Cincera Therapeutics Pty Ltd, priority 2019, dated 2025).

One may read the IC50 as the concentration at which inhibition is half-maximal. As a reminder, the inhibition is the drop in the measured response relative to a control, in per cent. Low values mean a weak effect, high ones a strong effect.

Consider `N=C(NO)c1ccc(Nc2ncc(-c3ccc(F)cc3)o2)nn1` [Example 47, 6-((5-(4-Fluorophenyl)oxazol-2-yl)amino)-N′-hydroxypyridazine-3-carboximidamide], for which the concentration for half-maximal inhibition (IC50) was under 100 nM.
`N/C(=N/O)c1ccc(Nc2ncc(-c3ccc(F)cn3)o2)cn1` [Compound 117, 5-((5-(5-Fluoropyridin-2-yl)oxazol-2-yl)amino)-N′-hydroxypicolinimidamide]: the half-maximal inhibitory concentration (IC50) is over 1000 nM. Further, the inhibition at 1 µM (Jurkat cells, 1 μM) is 36%.
For `CCN(O)C(=O)c1ccc(Nc2ncc(-c3ccc(C(F)(F)F)cc3)o2)cn1` [Example 32, N-Ethyl-N-hydroxy-5-((5-(4-(trifluoromethyl)phenyl)oxazol-2-yl)amino)picolinamide], the IC50 was under 1000 nM.
Consider `N/C(=N\O)c1cnc(Nc2nc(-c3ccc(C(F)(F)F)cn3)no2)cn1` [Example 85, N′-hydroxy-5-((3-(5-(trifluoromethyl)pyridin-2-yl)-1,2,4-oxadiazol-5-yl)amino)pyrazine-2-carboximidamide], for which the IC50 is over 1000 nM. The compound further came in with an inhibition at 1 µM (Jurkat cells, 1 μM) of 15%.
For `N/C(=N\O)c1cnc(Nc2ncc(-c3ccc(C(F)(F)F)cc3)o2)nc1` [Example 63, N′-Hydroxy-2-((5-(4-(trifluoromethyl)phenyl)oxazol-2-yl)amino)pyrimidine-5-carboximidamide] the same measures were over 1000 nM and 23%.
The matching figures for `N/C(=N\O)c1ncc(Nc2ncc(-c3ccc(C(F)(F)F)cn3)o2)cn1` [Example 58, N′-Hydroxy-5-((5-(5-(trifluoromethyl)pyridin-2-yl)oxazol-2-yl)amino)pyrimidine-2-carboximidamide]: over 1000 nM and 40%.
Turning to `O=c1cc(Nc2nnc(-c3ccc(C(F)(F)F)cc3)o2)ccn1O` [Example 7, 1-Hydroxy-4-((5-[4-(trifluoromethyl)phenyl]-1,3,4-oxadiazol-2-yl)amino)-1,2-dihydropyridin-2-one], the IC50 was under 1000 nM.
Turning to `N/C(=N\O)c1ccc(Nc2nc(-c3ccc(Cl)cc3)no2)cn1` [Example 78, 5-((3-(4-chlorophenyl)-1,2,4-oxadiazol-5-yl)amino)-N′-hydroxypicolinimidamide], the 50% inhibitory concentration (IC50) is under 1000 nM.
The same measure, in the same setting: next, `O=C(NO)c1ccc(Nc2ncc(-c3ccc(C(F)(F)F)cc3)o2)nn1` [Example 11, N-Hydroxy-6-((5-[4-(trifluoromethyl)phenyl]-1,3-oxazol-2-yl)amino)pyridazine-3-carboxamide]: 100 to 1000 nM; `O=C(NC[C@@H](O)CO)c1ccc(Nc2ncc(-c3ccc(C(F)(F)F)cc3)o2)cn1` [Example 36, (R)—N-(2,3-Dihydroxypropyl)-5-((5-(4-(trifluoromethyl)phenyl)oxazol-2-yl)amino)picolinamide]: 1 to 10 nM.
In the case of `N/C(=N\O)c1cnc(Nc2ncc(-c3ccc(Cl)cc3)o2)cn1` [Compound 101, 5-((5-(4-Chlorophenyl)oxazol-2-yl)amino)-N′-hydroxypyrazine-2-carboximidamide], the IC50 is under 1000 nM.
Same read-out and setting: next, `O=C(NO)c1ncc(Nc2nc(-c3ccc(C(F)(F)F)cc3)co2)cn1` [Example 12, N-Hydroxy-5-((4-[4-(trifluoromethyl)phenyl]-1,3-oxazol-2-yl)amino)pyrimidine-2-carboxamide]: 1000 to 10000 nM; `N/C(=N\O)c1ncc(Nc2ncc(-c3ccc(C(F)(F)F)cc3)o2)cc1O` [Example 26, N′,3-Dihydroxy-5-((5-(4-(trifluoromethyl)phenyl)oxazol-2-yl)amino)picolinimidamide]: 1 to 10 nM.
Still for that read-out and setting: next, `O=C(NO)c1ccc(Nc2nc(-c3ccc(C(F)(F)F)cc3)co2)cn1` [Example 14, N-Hydroxy-5-((4-[4-(trifluoromethyl)phenyl]-1,3-oxazol-2-yl)amino)picolinamide]: 100 to 1000 nM.
Consider `O=S(=O)(NCC(O)CO)c1ccc(Nc2ncc(-c3ccc(C(F)(F)F)cc3)o2)cn1` (racemic) [Example 16, rac-N-(2,3-Dihydroxypropyl)-5-((5-[4-(trifluoromethyl)phenyl]-1,3-oxazol-2-yl)amino)pyridine-2-sulfonamide], for which the IC50 is over 1000 nM. Under “Jurkat cells, 1 μM”, this compound showed an inhibition at 1 µM of 42%.
On to `Oc1ccc(Nc2ncc(-c3ccc(OC(F)(F)F)cc3)o2)nc1` [Compound 105, 6-((5-(4-(Trifluoromethoxy)phenyl)oxazol-2-yl)amino)pyridin-3-ol], for which the IC50 is under 1000 nM.
On to `N/C(=N/O)c1ccc(Nc2ncc(-c3ncc(C(F)(F)F)cn3)o2)cn1` [Example 65, N′-Hydroxy-5-((5-(5-(trifluoromethyl)pyrimidin-2-yl)oxazol-2-yl)amino)picolinimidamide], for which the IC50 was over 1000 nM. Also, the inhibition at 1 µM (Jurkat cells, 1 μM) worked out at 26%.
For `Cn1nc(-c2ccc(C(F)(F)F)cc2)cc1Nc1ccc(/C(N)=N\O)nc1` [Example 77, N′-Hydroxy-5-((1-methyl-3-(4-(trifluoromethyl)phenyl)-1H-pyrazol-5-yl)amino)picolinimidamide] the same measures were over 1000 nM and 47%.
Consider `CN(O)C(=O)c1ccc(Nc2ncn(-c3ccc(C(F)(F)F)cc3)n2)cn1` [Example 25, N-Hydroxy-N-methyl-5-((1-(4-(trifluoromethyl)phenyl)-1H-1,2,4-triazol-3-yl)amino)picolinamide], for which the 50% inhibitory concentration (IC50) was under 1000 nM.
As to `N/C(=N\O)c1ccc(Nc2nc(-c3ccc(OC(F)(F)F)cn3)no2)cn1` [Example 88, N′-hydroxy-5-((3-(5-(trifluoromethoxy)pyridin-2-yl)-1,2,4-oxadiazol-5-yl)amino)picolinimidamide], the IC50 is over 1000 nM. Moreover, for the setting “Jurkat cells, 1 μM”, the inhibition at 1 µM is 29%.
As to `Cl.N=C(NO)c1ccc(Nc2nnc(-c3ccc(C(F)(F)F)cn3)o2)cn1` [Example 69, N′-Hydroxy-5-((5-(5-(trifluoromethyl)pyridin-2-yl)-1,3,4-oxadiazol-2-yl)amino)picolinimidamide], the IC50 is over 1000 nM. Moreover, the “% inhibition of Des1 at 1 μM” value (Jurkat cells, 1 μM) is “no inhibition”.
Consider `N/C(=N\O)c1cnc(Nc2nc(-c3ccc(Cl)cn3)no2)cn1` [Example 81, 5-((3-(5-Chloropyridin-2-yl)-1,2,4-oxadiazol-5-yl)amino)-N′-hydroxypyrazine-2-carboximidamide], for which the 50% inhibitory concentration (IC50) was over 1000 nM. For the setting “Jurkat cells, 1 μM”, the inhibition at 1 µM is 7%.
For `N/C(=N/O)c1ccc(Nc2ncc(-c3cnc(C(F)(F)F)cn3)o2)cn1` [Example 66, N′-Hydroxy-5-((5-(5-(trifluoromethyl)pyrazin-2-yl)oxazol-2-yl)amino)picolinimidamide] the same measures were over 1000 nM and 47%.
`N/C(=N\O)c1ccc(Nc2nc(-c3ccc(C(F)(F)F)cc3)co2)cn1` [Example 60, N′-Hydroxy-5-((4-(4-(trifluoromethyl)phenyl)oxazol-2-yl)amino)picolinimidamide]: the IC50 was under 1000 nM.
Turning to `O=C(NC[C@@H](O)CO)c1ccc(Nc2ncc(-c3ccc(F)c(F)c3)o2)cn1` [Compound 97, (R)-5-((5-(3,4-Difluorophenyl)oxazol-2-yl)amino)-N-(2,3-dihydroxypropyl)picolinamide], the “% inhibition of Des1 at 0.1 μM” value (Jurkat cells, 0.1 μM) was found to be 55%.
Consider `N/C(=N/O)c1ccc(Nc2nnc(-c3ccc(Cl)cn3)o2)cn1` [Example 71, 5-((5-(5-Chloropyridin-2-yl)-1,3,4-oxadiazol-2-yl)amino)-N′-hydroxypicolinimidamide], for which the concentration for half-maximal inhibition (IC50) was over 1000 nM. The compound also yielded an inhibition at 1 µM (Jurkat cells, 1 μM) of 13%.
